Active and inactive are the calls of the source.
Columns and labels:
[1] = viability of Vero 76 cells – cell-based, set 3, cytotoxicity control, dose response (AID 602439); format: functional; details: Venezuelan equine encephalitis virus
[2] = loss of viability in HepG2 cells – cell-based, CellTiter-Glo, cherry-picked, cytotoxicity control for Shn3 inhibitor project, dose response (AID 624134); format: functional
[3] = Shn3 3'UTR reporter signal decrease – cell-based, Clone20 osteoblasts, firefly luciferase, cherry-pick, set 2, Schnurri-3 inhibitor project, dose response (AID 720490); format: functional;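 note: actives lower the luminescence signal as inhibitors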
[4] = reduction of Shn3 3'UTR-driven luciferase in osteoblasts – cell-based, Clone20 osteoblasts, firefly luciferase, cherry-picked, dose response (AID 624132); format: functional;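 note: firefly luciferase luminescence from reporter carrying the Shn3 3'UTR in osteoblasts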
[5] = non-specific 3'UTR reporter inhibition in Clone20-Shn3RL – cell-based, Renilla luciferase, cherry-picked, counter-screen for Shn3 inhibitor project, dose response (AID 624133); format: functional
[6] = target: T1, Microphthalmia-associated transcription factor (Homo sapiens, UniProt O75030); assay: reducers of TRPM1 reporter luminescence, concentration series – cell-based, SK-MEL-5, cherry-picked, set 3, MITF inhibitor project, dose response (AID 493073); format: functional;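 note: SK-MEL-5 melanoma cells with luciferase driven by the MITF target TRPM1 promoter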
T1 sequence (O75030 whole entry): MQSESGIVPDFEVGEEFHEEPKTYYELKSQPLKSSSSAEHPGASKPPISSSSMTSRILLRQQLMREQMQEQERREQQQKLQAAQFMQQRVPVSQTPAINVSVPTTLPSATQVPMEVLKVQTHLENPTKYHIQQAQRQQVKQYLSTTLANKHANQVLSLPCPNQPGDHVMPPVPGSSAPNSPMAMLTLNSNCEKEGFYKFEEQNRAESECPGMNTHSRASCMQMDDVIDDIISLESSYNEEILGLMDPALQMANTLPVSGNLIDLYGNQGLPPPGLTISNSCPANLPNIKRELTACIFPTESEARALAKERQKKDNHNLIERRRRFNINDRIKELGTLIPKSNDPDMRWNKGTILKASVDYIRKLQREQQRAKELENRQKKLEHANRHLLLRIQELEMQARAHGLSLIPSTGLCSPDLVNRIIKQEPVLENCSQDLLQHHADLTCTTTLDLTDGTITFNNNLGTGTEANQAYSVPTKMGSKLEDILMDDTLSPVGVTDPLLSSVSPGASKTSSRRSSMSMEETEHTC

INS1 = assay: INS-1E survival protection against cytokine death – cell-based, luminescence, retest, dose response (AID 449756); format: functional; details: Rattus norvegicus;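 note: cell death triggered by IL-1 beta plus TNF-alpha plus IFN-gamma mixture; protective hits raise ATP signal compared with cytokine alone wells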
Streptococcus = assay: GAS UMAA2166 growth inhibition – luminescence, BacTiterGlo, counter-screen for streptokinase expression inhibitor project, dose response (AID 1915); format: functional, organism-based;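 note: potency for reduction of bacterial viability or growth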
Streptokinase A = target: T2, Streptokinase A (Streptococcus pyogenes serotype M1, UniProt P10520); assay: viability-normalized secreted streptokinase activity reduction – plasminogen activation absorbance, OD405, dose response (AID 1914); format: functional, Streptococcus pyogenes M1 GAS;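 note: secreted streptokinase activity via plasminogen activation per viability signal from cell pellet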
T2 sequence (P10520 whole entry): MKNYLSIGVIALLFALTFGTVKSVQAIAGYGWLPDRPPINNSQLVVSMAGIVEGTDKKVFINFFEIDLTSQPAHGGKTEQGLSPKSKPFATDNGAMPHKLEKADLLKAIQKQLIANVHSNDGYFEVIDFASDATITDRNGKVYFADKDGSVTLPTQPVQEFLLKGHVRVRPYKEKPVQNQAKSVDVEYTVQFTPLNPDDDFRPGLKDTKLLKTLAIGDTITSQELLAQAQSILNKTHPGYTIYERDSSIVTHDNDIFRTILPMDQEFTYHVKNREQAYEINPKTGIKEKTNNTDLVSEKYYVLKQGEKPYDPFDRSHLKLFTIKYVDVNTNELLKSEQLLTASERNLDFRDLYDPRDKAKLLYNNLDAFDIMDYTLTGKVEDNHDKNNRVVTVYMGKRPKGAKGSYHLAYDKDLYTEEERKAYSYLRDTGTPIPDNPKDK

[7] = system: Streptococcus sp. 'group A'; assay: Streptococcus pyogenes SK(-)GAS viability under kanamycin – luminescence, BacTiterGlo, confirmation, counter-screen for streptokinase expression inhibitor project, dose response (AID 1900); format: functional, organism-based
[8] = viability loss in HepG2 hepatoma cells – cell-based, ATP luminescence, cherry-pick, activator set 2, cytotoxicity control, dose response (AID 1053143); format: functional
Caspase-3 = target: T3, Caspase-3 (Homo sapiens, UniProt P42574); format: functional;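 note: Dose-response selectivity test against caspase-3 for candidate inhibitors of sentrin-specific proteases (SENPs)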
T3 sequence (P42574 whole entry): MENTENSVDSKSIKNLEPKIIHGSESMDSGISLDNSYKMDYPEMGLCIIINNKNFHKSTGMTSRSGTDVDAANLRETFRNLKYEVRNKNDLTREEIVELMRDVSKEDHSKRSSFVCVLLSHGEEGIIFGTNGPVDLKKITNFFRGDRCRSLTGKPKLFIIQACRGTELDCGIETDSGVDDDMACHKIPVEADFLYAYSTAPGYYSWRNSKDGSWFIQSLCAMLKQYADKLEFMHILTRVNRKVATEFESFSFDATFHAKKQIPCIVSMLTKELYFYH

Caspase-6 = Caspase-6 (Homo sapiens, UniProt P55212); assay: inhibition of CASP6 peptide cleavage – biochemical, VEID-R110 fluorescence, cherry-pick, dose response (AID 720632)
Sequence of Caspase-6 (P55212 24-179 limits assumed): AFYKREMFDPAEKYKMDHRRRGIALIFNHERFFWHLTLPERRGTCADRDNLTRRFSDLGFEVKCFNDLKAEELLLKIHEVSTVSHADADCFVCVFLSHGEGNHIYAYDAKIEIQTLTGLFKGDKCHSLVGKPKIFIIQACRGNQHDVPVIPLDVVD
Sequence of Caspase-6 (P55212 194-293 limits assumed): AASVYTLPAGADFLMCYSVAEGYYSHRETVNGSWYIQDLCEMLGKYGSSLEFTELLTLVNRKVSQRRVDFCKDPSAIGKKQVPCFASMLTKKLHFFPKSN

[9] = target: Dual specificity tyrosine-phosphorylation-regulated kinase 1A (Rattus norvegicus, UniProt Q63470); format: biochemical, Homo sapiens
[10] = target: T4, Sentrin-specific protease 7 (Homo sapiens, UniProt Q9BQF6); format: functional;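 note: Luminescence-based dose-response confirmation of ultra-high-throughput screening hits, measuring inhibition of SENP7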
T4 sequence (Q9BQF6 whole entry): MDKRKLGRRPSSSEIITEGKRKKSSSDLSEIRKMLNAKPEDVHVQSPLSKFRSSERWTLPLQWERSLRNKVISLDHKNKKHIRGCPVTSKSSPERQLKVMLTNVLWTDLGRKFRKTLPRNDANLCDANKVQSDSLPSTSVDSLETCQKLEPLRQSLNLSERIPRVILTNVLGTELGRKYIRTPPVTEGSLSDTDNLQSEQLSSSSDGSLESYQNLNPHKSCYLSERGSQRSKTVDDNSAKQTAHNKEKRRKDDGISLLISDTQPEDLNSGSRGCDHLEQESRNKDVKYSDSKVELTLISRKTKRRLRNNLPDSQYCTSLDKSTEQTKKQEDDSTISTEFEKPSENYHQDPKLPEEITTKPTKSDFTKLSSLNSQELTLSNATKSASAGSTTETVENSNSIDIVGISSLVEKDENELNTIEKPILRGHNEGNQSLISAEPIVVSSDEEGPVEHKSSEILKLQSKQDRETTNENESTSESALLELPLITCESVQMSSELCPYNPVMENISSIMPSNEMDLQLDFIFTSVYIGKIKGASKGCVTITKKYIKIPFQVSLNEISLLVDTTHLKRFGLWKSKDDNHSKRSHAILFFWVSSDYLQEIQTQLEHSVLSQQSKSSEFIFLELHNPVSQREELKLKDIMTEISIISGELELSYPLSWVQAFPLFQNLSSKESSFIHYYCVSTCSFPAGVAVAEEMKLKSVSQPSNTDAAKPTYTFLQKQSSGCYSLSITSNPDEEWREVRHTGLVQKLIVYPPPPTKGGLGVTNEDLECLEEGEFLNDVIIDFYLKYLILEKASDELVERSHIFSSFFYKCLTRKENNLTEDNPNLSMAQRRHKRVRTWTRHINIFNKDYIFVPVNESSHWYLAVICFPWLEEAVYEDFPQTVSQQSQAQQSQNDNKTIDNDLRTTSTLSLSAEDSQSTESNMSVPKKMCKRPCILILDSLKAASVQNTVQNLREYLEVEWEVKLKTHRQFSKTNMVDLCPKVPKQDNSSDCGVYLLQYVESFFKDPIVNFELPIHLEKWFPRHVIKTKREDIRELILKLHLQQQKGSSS

[11] = target: T5, Sentrin-specific protease 8 (Homo sapiens, UniProt Q96LD8); format: functional;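 note: luminescence read-out of SENP8 inhibition, dose-response confirmation following an ultra-high-throughput screen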
T5 sequence (Q96LD8 whole entry): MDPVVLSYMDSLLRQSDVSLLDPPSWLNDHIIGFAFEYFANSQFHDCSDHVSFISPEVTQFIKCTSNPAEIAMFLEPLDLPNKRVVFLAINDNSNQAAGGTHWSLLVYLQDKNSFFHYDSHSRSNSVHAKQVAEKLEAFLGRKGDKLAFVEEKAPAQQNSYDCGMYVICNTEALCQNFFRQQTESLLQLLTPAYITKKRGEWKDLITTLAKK

[12] = target: T6, Sentrin-specific protease 6 (Homo sapiens, UniProt Q9GZR1); format: functional;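 note: Luminescence-based dose-response confirmatory assay of SENP6 inhibition, following up an ultra-high-throughput screen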
T6 sequence (Q9GZR1 whole entry): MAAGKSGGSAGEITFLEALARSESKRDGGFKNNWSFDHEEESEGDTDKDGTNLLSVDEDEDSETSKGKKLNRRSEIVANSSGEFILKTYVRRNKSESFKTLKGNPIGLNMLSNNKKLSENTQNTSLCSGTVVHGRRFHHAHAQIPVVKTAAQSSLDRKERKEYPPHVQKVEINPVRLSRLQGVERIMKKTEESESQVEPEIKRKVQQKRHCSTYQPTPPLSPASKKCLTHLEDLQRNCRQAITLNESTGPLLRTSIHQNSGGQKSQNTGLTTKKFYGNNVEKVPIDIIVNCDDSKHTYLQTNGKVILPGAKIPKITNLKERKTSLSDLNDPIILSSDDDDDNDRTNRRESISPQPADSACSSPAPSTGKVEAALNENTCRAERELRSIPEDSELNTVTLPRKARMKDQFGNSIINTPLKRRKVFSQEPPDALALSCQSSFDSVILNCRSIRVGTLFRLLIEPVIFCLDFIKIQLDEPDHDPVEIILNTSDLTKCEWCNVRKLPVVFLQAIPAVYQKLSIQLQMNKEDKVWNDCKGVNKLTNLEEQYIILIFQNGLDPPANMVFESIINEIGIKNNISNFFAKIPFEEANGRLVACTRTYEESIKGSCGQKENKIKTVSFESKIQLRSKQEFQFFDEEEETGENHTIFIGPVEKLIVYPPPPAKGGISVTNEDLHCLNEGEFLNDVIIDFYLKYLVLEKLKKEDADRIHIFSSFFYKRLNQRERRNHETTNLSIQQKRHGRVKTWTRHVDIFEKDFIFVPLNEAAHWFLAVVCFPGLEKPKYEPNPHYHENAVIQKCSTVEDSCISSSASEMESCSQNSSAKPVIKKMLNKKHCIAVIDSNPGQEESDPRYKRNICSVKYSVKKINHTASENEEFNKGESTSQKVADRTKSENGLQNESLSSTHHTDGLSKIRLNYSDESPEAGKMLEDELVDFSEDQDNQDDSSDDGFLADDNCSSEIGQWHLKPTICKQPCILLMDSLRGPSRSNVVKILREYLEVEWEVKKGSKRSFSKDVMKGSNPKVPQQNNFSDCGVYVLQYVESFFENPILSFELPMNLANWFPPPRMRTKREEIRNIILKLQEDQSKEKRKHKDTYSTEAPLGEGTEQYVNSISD

Kallikrein-7 = Kallikrein-7 (Homo sapiens, UniProt P49862); assay: Fluorescence Intensity-based biochemical primary high throughput dose response assay to identify activators of kallikrein-7 (K7) zymogen.
Sequence of Kallikrein-7 (P49862 whole entry): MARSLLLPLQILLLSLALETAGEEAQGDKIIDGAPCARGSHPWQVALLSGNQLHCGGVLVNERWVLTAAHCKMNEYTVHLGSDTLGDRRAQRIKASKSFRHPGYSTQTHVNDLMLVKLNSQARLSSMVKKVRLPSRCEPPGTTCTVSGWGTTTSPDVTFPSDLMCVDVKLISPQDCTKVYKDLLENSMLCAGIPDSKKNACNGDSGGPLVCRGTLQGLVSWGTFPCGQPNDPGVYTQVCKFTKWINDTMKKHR

[13] = inhibition of ADAM10 peptide cleavage – biochemical, FRET peptide substrate, recombinant human ADAM10, selectivity assay for ADAM17 exosite inhibitor project, dose response (AID 743259);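 note: ADAM10 enzyme cleaving a FRET peptide substrate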
[14] = target: Disintegrin and metalloproteinase domain-containing protein 17 (Homo sapiens, UniProt P78536); assay: exosite inhibitors of ADAM17, dose response, biochemical (AID 743260)
Sequence of Disintegrin and metalloproteinase domain-containing protein 17 (P78536 whole entry, the tested form may be a part): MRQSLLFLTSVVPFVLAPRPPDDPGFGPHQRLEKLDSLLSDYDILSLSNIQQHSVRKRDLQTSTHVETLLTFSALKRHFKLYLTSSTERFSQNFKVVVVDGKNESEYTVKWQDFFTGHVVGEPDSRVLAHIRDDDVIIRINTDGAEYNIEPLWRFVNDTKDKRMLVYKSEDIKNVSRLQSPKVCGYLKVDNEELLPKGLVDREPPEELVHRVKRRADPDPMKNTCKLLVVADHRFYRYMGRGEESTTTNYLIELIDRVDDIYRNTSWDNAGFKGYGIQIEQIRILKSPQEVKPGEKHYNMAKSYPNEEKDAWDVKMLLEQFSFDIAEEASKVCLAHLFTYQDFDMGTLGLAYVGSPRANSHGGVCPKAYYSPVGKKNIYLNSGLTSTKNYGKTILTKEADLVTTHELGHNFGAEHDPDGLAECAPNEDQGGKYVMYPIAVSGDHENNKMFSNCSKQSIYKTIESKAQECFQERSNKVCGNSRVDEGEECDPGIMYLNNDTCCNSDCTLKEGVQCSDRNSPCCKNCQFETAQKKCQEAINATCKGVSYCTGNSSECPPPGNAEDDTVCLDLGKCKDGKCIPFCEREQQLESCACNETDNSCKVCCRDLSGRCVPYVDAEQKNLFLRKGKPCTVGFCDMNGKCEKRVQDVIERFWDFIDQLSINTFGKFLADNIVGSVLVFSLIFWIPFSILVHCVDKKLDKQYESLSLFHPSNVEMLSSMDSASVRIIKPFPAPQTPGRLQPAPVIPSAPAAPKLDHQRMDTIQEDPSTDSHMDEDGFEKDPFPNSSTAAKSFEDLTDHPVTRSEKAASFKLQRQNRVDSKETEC

HEK293 = assay: viability loss in HEK293T cells – cell-based, ATP luminescence, cherry-pick samples, cytotoxicity control, dose response (AID 687005); format: functional; details: Homo sapiens;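 note: cells exposed to compound for 48 hours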
[15] = HEK293 Cytotoxicity Assay Measured in Cell-Based System Using Plate Reader - 7071-01_Inhibitor_Dose_CherryPick_Activity_Set2.; format: functional
HeLa = assay: viability loss in HeLa cells – cell-based, ATP luminescence, cherry-pick samples, cytotoxicity control, dose response (AID 687004); format: functional; details: Homo sapiens
[16] = Late stage assay provider results from the probe development effort to identify selective inhibitors of heat shock protein 90 (HSP90): Absorbance-based cell proliferation assay in MCF7 cells.; format: functional
[17] = Late stage assay provider results from the probe development effort to identify selective inhibitors of heat shock protein 90 (HSP90): Absorbance-based cell proliferation assay in SKBR3 cells.; format: functional; details: SK-BR-3
[18] = target: Protein disulfide-isomerase (Homo sapiens, UniProt P07237); assay: inhibition of PDI-mediated insulin reduction – biochemical, turbidity, dry powder samples, set 2, confirmation (AID 652146)
Sequence of Protein disulfide-isomerase (P07237 whole entry): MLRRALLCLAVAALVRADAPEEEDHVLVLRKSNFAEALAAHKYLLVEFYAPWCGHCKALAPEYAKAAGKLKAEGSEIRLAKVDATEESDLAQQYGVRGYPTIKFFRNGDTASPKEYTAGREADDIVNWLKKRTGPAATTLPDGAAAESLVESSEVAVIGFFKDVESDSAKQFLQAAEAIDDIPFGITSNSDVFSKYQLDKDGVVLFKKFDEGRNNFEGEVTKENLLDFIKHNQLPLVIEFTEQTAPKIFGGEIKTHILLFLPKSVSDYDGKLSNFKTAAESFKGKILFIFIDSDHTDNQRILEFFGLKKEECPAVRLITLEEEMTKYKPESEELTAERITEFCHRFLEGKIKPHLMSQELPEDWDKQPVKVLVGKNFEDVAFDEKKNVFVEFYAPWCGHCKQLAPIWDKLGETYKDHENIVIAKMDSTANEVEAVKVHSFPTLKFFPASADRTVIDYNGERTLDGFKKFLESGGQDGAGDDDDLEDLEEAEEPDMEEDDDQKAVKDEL

[19] = melanocyte viability loss, MITF-dependent cells, cell-based, plate reader, dry powder, cytotoxicity control, dose response (AID 651920); format: functional
[20] = viability loss in MITF-independent A375 cells – cell-based, CellTiter-Glo luminescence, dry powder, set 2, counter-screen for MITF inhibitor project, dose response (AID 624489); format: functional; details: A-375;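 note: actives are compounds lowering A375 viability meaning general cytotoxicity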

O=C(Nc1nc2c(s1)CCCC2)c1cccs1
CC50 [1]: > 50 µM (active)

COc1ccccc1NS(=O)(=O)c1cc(NC(=O)c2ccc(Cl)nc2)ccc1Cl
AC50 [2]: 56.2 µM (active) | AC50 [3]: 3.71 µM (active) | AC50 [4]: 3.12 µM (active) | AC50 [5]: 21 µM (active) | AC50 [6]: 11.3 µM (active)

CCOC(=O)c1sc(NC(=O)Nc2cccc(Cl)c2)cc1C
AC50 (INS1): 4.57 µM (active) | EC50 (Streptococcus): 4.1 µM (active) | EC50 (Streptokinase A): 11.2 µM (active) | EC50 [7]: 4.86 µM (active) | AC50 [8]: 14.7 µM (active)

COc1cc2c(C#N)c(N3CCCC3)nc(N)c2c(N)n1
IC50 (Caspase-3): 7.35 µM (active) | AC50 (Caspase-6): 12 µM (active) | AC50 [9]: 5.72 µM (active) | IC50 [10]: 2.67 µM (active) | IC50 [11]: 2.64 µM (active) | IC50 [12]: 2.24 µM (active)

COc1cc2c(cc1OC)C1CCN3C(=O)CCC3N1CC2 (stereo not drawn)
EC50 (Kallikrein-7): 21.1 µM (inactive)

Cc1ccc(CC2(c3ccccc3)NC(=O)NC2=O)cc1 (stereo not drawn)
IC50 [13]: > 69.4 µM (inactive) | IC50 [14]: 18.6 µM (inactive)

CCCC#Cc1ccc2c(c1)O[C@H](CN(C)CCC)[C@H](C)CN([C@@H](C)CO)S2(=O)=O
AC50 (HEK293): 14.6 µM (active) | AC50 [15]: 14.6 µM (active) | AC50 (HeLa): 42.6 µM (active)

COc1ccccc1/N=N/c1c(O)[nH]c(=O)c(C#N)c1C
IC50 [16]: > 100 µM (inactive) | IC50 [17]: > 100 µM (inactive)

C=CCOc1ccc(CN2CCC(CCOc3ccccc3)(C(=O)N3CCCC3)CC2)cc1Cl
AC50 [18]: > 30 µM (inactive)

O=C(NC1=C(N2CCN(c3ccccc3)CC2)C(=O)c2ccccc2C1=O)c1ccccc1
AC50 [19]: > 70 µM (inactive) | AC50 [20]: > 70 µM (inactive)
